Consider 4 molecules from paper PMC10108347, “Heterobifunctional Ligase Recruiters Enable pan-Degradation of Inhibitor of Apoptosis Proteins” (Journal of Medicinal Chemistry, 2023).

Data set [1] concerns the target T1, cIAP1 (BIRC2) (Homo sapiens, UniProt Q13490).
T1 construct: endogenous in cells; host or cells: MM.1S
Briefly: diaPASEF quantitative proteomics in MM.1S cells: cIAP1 (BIRC2). Type of data set: cell-based. Particulars: 3 h; for cIAP1 level in global proteomics (in words): 100 nM, diaPASEF. The protocol:
To analyze the proteome-wide degradation selectivity of hetero-PROTACs 9, 25, and 27, a diaPASEF-based mass spectrometry approach was employed.[54] MM.1S cells were treated with 100 nM PROTACs for 3 h. […] Accordingly, global proteomic plots show the mathematically imputed levels of IAP proteins in treatment groups if the corresponding IAP was detected in the control treatment (see also Experimental Section).
MM1s cells were treated with DMSO or 0.1 μM of compound for 3 h. The cells were harvested by centrifugation and washed with phosphate-buffered saline before snap-freezing in liquid nitrogen. The cells were lysed by addition of lysis buffer (8 M urea, 50 mM NaCl, 50 mM 4-(2-hydroxyethyl)-1-piperazine-ethanesulfonic acid (EPPS) pH 8.5, protease, and phosphatase inhibitors) and homogenization by bead beating (BioSpec) for three repeats of 30 s at 2400. Bradford assay was used to determine the final protein concentration in the clarified cell lysate. 50 μg of protein for each sample was reduced, alkylated, and precipitated using methanol/chloroform as previously described,[64] and the resulting washed precipitated protein was allowed to air dry. The precipitated protein was resuspended in 4 M urea, 50 mM HEPES pH 7.4, followed by dilution to 1 M urea with the addition of 200 mM EPPS, pH 8. Proteins were first digested with LysC (1:50; enzyme/protein) for 12 h at RT. The LysC digestion was diluted to 0.5 M urea with 200 mM EPPS pH 8, followed by digestion with trypsin (1:50; enzyme/protein) for 6 h at 37 °C. Sample digests were acidified with formic acid to a pH of 2–3 prior to desalting using C18 solid-phase extraction plates (SOLA, Thermo Fisher Scientific). Desalted peptides were dried in a vacuum centrifuge and reconstituted in 0.1% formic acid for LC–MS analysis.
Data were collected using a TimsTOF Pro2 (Bruker Daltonics, Bremen, Germany) coupled to a nanoElute LC pump (Bruker Daltonics, Bremen, Germany) via a CaptiveSpray nanoelectrospray source. Peptides were separated on a reversed-phase C18 column (25 cm × 75 μm ID, 1.6 μM, IonOpticks, Australia) containing an integrated captive spray emitter. Peptides were separated using a 50 min gradient of 2–30% buffer B (acetonitrile in 0.1% formic acid) with a flow rate of 250 nL/min and column temperature maintained at 50 °C.
Data-Dependent Acquisition (DDA) was performed in the Parallel Accumulation-Serial Fragmentation (PASEF) mode to determine effective ion mobility windows for downstream diaPASEF data collection.[54] The diaPASEF parameters included 100% duty cycle using accumulation and ramp times of 50 ms each, 1 TIMS-MS scan, and 10 PASEF ramps per acquisition cycle. The TIMS-MS survey scan was acquired between 100–1700 m/z and 1/K0 of 0.7–1.3 V × s/cm^2. Precursors with 1–5 charges were selected, and those that reached an intensity threshold of 20,000 arbitrary units were actively excluded for 0.4 min. The quadrupole isolation width was set to 2 m/z for m/z < 700 and 3 m/z for m/z > 800, with the m/z between 700 and 800 m/z being interpolated linearly. The TIMS elution voltages were calibrated linearly with three points (Agilent ESI-L Tuning Mix Ions; 622, 922, 1222 m/z) to determine the reduced ion mobility coefficients (1/K0). To perform diaPASEF, the precursor distribution in the DDA m/z-ion mobility plane was used to design an acquisition scheme for DIA data collection, which included two windows in each 50 ms diaPASEF scan. […]

In data set [2] the target is CRBN (Homo sapiens, UniProt Q96SW2). Briefly: Immunoblotting (western blot) quantification of CRBN levels in MM.1S cells. Particulars: MM1.S, 16 h, read-out: %remaining protein CRBN. In general terms: In western blotting, separated proteins are transferred to a membrane and probed.
Description: (§1) To evaluate the capability of our panel of hetero-PROTACs for E3 ligase degradation, VHL19, VHL30, CRBN, cIAP1, cIAP2, and XIAP levels were quantified by western blot analyses. […] SDS-PAGE was performed, and proteins were then transferred onto PVDF membranes. Blotted membranes were blocked with 5% milk in Tris-buffered saline/Tween20 (TBST). Primary antibodies were diluted in 5% BSA in TBST, and incubations were performed overnight at 4 °C. Secondary HRP-conjugated antibodies diluted in 5% milk were incubated for 1 h at room temperature. Detection of proteins on PVDF was carried out using the WesternBright ECL HRP substrate or the WesternBright Sirius HRP substrate (Advansta, San Jose, USA) and imaged with LAS 4000× (Fujifilm). Membranes were subjected to 10 min incubation with Restore Western Blot Stripping Buffer (Thermo Fisher Scientific, Waltham, USA), followed by TBST washes. After brief re-activation with methanol, the membranes were blocked, and further probing of proteins was carried out.
(§2) Quantification of blots was performed using ImageJ software (National Institutes of Health).
Data set [3] concerns IKZF3. Briefly: Immunoblotting (western blot) quantification of IKZF3 levels in MM.1S cells. Particulars: for %remaining protein IKZF3: 16 h treatment at 0.1 μM, normalized to loading control and DMSO.
Description: as §1, §2
The target in data set [4] is T2, plasma protein (HSA column) (Homo sapiens, UniProt P02768).
T2 construct: purchased
Briefly: Plasma protein binding estimated by HPLC on a […] HSA column. Type of data set: in vitro ADME. Particulars: CHIRALPAK HSA column (50 × 3 mm, 5 μm), estimated by an HPLC-based method, read-out: PPB (plasma protein binding) (converted). The essentials: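 % PPB was estimated from log retention time on an HSA column (50 × 3 mm, 5 μm, 30 °C), calibrated against log K of literature-PPB reference drugs. Samples were eluted with 50 mM ammonium acetate pH 7.4 and an iPrOH gradient to 30%, with UV detection at 254 nm.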

Data set [5] deals with VHL30 (Homo sapiens, UniProt P40337). Briefly: Immunoblotting (western blot) quantification of VHL30 levels in MM.1S cells.
Description: as §1, §2
In data set [6] the target is VHL19 (Homo sapiens, UniProt P40337). Briefly: Immunoblotting (western blot) quantification of VHL19 levels in MM.1S cells. Particulars: 16 h, 1 μM.
VHL19, sequence (P40337 54-213): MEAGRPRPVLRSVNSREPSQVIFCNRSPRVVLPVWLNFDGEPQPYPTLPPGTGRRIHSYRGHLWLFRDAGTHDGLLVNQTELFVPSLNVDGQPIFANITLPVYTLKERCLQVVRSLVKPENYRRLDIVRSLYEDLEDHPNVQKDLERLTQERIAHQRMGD
Description: as §1, §2

T1 sequence (Q13490 whole entry): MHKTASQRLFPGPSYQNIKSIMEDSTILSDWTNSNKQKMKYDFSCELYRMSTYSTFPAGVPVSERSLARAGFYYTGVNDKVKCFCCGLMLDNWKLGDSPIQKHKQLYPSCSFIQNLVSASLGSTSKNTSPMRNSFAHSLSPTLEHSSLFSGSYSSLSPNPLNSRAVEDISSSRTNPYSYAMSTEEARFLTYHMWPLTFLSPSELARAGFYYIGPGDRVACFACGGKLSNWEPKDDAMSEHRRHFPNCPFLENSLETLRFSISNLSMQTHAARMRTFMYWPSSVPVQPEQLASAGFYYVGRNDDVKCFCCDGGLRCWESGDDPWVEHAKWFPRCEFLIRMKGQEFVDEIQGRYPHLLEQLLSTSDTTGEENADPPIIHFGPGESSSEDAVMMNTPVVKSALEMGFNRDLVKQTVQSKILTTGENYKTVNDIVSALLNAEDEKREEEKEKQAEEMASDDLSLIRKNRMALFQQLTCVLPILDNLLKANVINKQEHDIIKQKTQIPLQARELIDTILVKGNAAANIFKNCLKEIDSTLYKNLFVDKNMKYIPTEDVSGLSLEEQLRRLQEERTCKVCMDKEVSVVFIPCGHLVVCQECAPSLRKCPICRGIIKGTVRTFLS
VHL30, sequence (P40337 whole entry): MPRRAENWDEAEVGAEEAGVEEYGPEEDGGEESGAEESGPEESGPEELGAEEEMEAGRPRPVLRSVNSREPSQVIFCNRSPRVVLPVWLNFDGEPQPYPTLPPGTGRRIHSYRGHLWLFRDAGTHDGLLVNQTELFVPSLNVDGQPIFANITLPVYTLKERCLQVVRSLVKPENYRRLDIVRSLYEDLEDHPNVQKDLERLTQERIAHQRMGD
CRBN, sequence (Q96SW2 whole entry): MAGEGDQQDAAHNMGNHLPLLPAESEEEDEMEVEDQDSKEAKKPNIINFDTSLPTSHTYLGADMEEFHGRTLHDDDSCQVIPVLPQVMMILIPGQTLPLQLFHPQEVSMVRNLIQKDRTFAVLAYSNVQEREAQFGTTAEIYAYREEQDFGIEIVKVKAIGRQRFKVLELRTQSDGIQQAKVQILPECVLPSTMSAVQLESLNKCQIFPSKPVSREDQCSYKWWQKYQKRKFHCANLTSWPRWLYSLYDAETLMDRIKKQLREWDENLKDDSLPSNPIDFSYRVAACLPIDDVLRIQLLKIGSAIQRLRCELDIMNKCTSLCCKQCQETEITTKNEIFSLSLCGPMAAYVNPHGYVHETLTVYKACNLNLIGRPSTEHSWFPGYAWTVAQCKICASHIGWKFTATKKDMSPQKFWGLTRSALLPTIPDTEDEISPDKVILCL
T2 sequence (P02768 25-609): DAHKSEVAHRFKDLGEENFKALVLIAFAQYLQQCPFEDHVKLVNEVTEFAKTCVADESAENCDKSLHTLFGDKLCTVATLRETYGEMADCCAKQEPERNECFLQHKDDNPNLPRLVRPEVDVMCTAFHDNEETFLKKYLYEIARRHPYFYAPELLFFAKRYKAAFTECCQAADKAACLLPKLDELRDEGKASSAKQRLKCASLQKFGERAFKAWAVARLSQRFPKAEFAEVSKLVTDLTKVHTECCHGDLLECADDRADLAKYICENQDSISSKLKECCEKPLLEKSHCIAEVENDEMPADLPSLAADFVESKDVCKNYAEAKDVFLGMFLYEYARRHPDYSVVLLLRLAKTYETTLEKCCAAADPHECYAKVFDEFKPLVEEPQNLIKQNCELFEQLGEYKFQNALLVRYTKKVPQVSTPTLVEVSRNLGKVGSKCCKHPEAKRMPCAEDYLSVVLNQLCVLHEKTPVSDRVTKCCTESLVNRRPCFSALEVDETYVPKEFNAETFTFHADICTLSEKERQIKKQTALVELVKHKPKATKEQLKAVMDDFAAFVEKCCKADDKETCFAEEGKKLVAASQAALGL

In the case of `CN[C@@H](C)C(=O)N[C@H](C(=O)N1C[C@@H](Oc2cccc(OCCOCCCCCCOCCCCCCNc3cccc4c3C(=O)N(C3CCC(=O)NC3=O)C4=O)c2)C[C@H]1C(=O)N[C@@H]1CCCc2ccccc21)C1CCCCC1` (stereo partly drawn) [PROTAC 25, (2S,4S)-1-((S)-2-Cyclohexyl-2-((S)-2-(methylamino)propanamido)acetyl)-4-(3-(2-((6-((6-((2-(2,6-dioxopiperidin-3-yl)-1,3-dioxoisoindolin-4-yl)amino)hexyl)oxy)hexyl)oxy)ethoxy)phenoxy)-N-((R)-1,2,3,4-tetrahydronaphthalen-1-yl)pyrrolidine-2-carboxamide], the “logFC BIRC2” value in data set [1] (0.1 μM, log2 fold change compound vs CTRLs (limma)) is reported as -2.352. Moreover, the “cIAP1 level in global proteomics (in words)” value (from here on “cIAP1 level”) in data set [1] is “below the detection level”. In data set [2], the remaining activity at 0.1 µM came to 91%. In addition, the “IKZF3 degradation (in words)” value in data set [3] (16 h, 1 μM) is “substantial IKZF3 degradation at 1 μM”. The “%remaining protein IKZF3” value in data set [3] came to 95%.

Consider `CN[C@@H](C)C(=O)N[C@@H](C(=O)N1CCC[C@H]1C(=O)N[C@@H]1c2ccccc2C[C@@H]1OCC#CC#CCO[C@H]1Cc2ccccc2[C@H]1NC(=O)[C@@H]1CCCN1C(=O)[C@H](NC(=O)[C@H](C)NC)C1CCCCC1)C1CCCCC1` [AZD5582, reference compound], for which the fraction unbound at 0.5 mg/mL in data set [4] is 0.06. Besides, in data set [1], the “cIAP1 level” value is on record as “depleted cIAP1 below the detection level”.

Turning to `CN[C@@H](C)C(=O)N[C@H](C(=O)N1C[C@@H](Oc2cccc(OCCCCCCOCCCCCCOCCCCCCNc3cccc4c3C(=O)N(C3CCC(=O)NC3=O)C4=O)c2)C[C@H]1C(=O)N[C@@H]1CCCc2ccccc21)C1CCCCC1` (stereo partly drawn) [PROTAC 27, (2S,4S)-1-((S)-2-Cyclohexyl-2-((S)-2-(methylamino)propanamido)acetyl)-4-(3-((6-((6-((6-((2-(2,6-dioxopiperidin-3-yl)-1,3-dioxoisoindolin-4-yl)amino)hexyl)oxy)hexyl)oxy)hexyl)oxy)phenoxy)-N-((R)-1,2,3,4-tetrahydronaphthalen-1-yl)pyrrolidine-2-carboxamide], in data set [1], the “cIAP1 level” value is “no impact”. The remaining activity at 0.1 µM in data set [2] turned out to be 95%. In addition, the “%remaining protein IKZF3” value in data set [3] is listed as 95%.

As for `CN[C@@H](C)C(=O)N[C@H](C(=O)N1C[C@@H](Oc2cccc(OCCCCC(=O)N[C@H](C(=O)N3C[C@H](O)C[C@H]3C(=O)N[C@@H](C)c3ccc(-c4scnc4C)cc3)C(C)(C)C)c2)C[C@H]1C(=O)N[C@@H]1CCCc2ccccc21)C1CCCCC1` [PROTAC 9, (2S,4S)-1-((S)-2-Cyclohexyl-2-((S)-2-(methylamino)propanamido)acetyl)-4-(3-((5-(((S)-1-((2S,4R)-4-hydroxy-2-(((S)-1-(4-(4-methylthiazol-5-yl)phenyl)ethyl)carbamoyl)pyrrolidin-1-yl)-3,3-dimethyl-1-oxobutan-2-yl)amino)-5-oxopentyl)oxy)phenoxy)-N-((R)-1,2,3,4-tetrahydronaphthalen-1-yl)pyrrolidine-2-carboxamide], the “cIAP1 level” value in data set [1] is on record as “below the detection level”. Moreover, the remaining activity at 0.1 µM in data set [5] (MM1.S, 16 h, read-out: %remaining protein VHL30, MM.1S cells, 16 h treatment at 0.1 μM, normalized to loading control and DMSO) is 9%. The “VHL30 degradation (in words)” value in data set [5] (MM.1S cells, western blot) is recorded as “most pronounced after 6 h of treatment”. Also, the “remaining VHL19” value in data set [6] is recorded as 24%.
